Results: the CheMixHub viscosity set
Where “and” joins values, the source holds several entries; their conditions need not be identical. Equal entries are not always repeated.

Assay: xn = mol fraction of the nth substance listed

CCOCCO + CC(C)CC(C)(C)C
viscosity [mPa·s], 101.33 kPa
Conditions	x1 = 0.0991	x1 = 0.1991	x1 = 0.2975	x1 = 0.4347	x1 = 0.4972	x1 = 0.6001	x1 = 0.6976	x1 = 0.7979	x1 = 0.8986
298.15 K	0.494	0.536	0.595	0.692	0.753	0.862	1.006	1.179	1.436
303.15 K	0.466	0.5	0.552	0.648	0.694	0.797	0.913	1.086	1.292
308.15 K	0.439	0.475	0.517	0.601	0.642	0.738	0.839	0.993	1.167
313.15 K	0.415	0.445	0.483	0.56	0.597	0.677	0.767	0.901	1.066

CC[N+](CC)(CC)CC.[Br-] + OCCO
viscosity [mPa·s], 100 kPa
Conditions	298 K	298.15 K	308 K	318 K
x1 = 0.333	–	37.5	–	–
x2 = 0.75	28	–	18.5	13

CNCCO + CCCCOCCO
viscosity, 101.3 kPa
Conditions	293.15 K	298.15 K	303.15 K	308.15 K	313.15 K	318.15 K	323.15 K
x1 = 0.149	4.016 mPa·s	3.469 mPa·s	3.02 mPa·s	2.649 mPa·s	2.339 mPa·s	2.077 mPa·s	1.856 mPa·s
x1 = 0.403	5.748 mPa·s	4.862 mPa·s	4.158 mPa·s	3.584 mPa·s	3.112 mPa·s	2.725 mPa·s	2.401 mPa·s
x1 = 0.512	6.672 mPa·s and 6.73 mPa·s	5.591 mPa·s and 5.64 mPa·s	4.739 mPa·s and 4.78 mPa·s	4.054 mPa·s and 4.09 mPa·s	3.5 mPa·s and 3.53 mPa·s	3.045 mPa·s and 3.07 mPa·s	2.667 mPa·s and 2.69 mPa·s
x1 = 0.611	7.632 mPa·s	6.341 mPa·s	5.331 mPa·s	4.528 mPa·s	3.883 mPa·s	3.358 mPa·s	2.926 mPa·s
x1 = 0.702	8.54 mPa·s	7.04 mPa·s	5.87 mPa·s	4.95 mPa·s	4.22 mPa·s	3.63 mPa·s	3.15 mPa·s
x1 = 0.786	9.713 mPa·s	7.929 mPa·s	6.563 mPa·s	5.498 mPa·s	4.657 mPa·s	3.983 mPa·s	3.436 mPa·s
x1 = 0.934	12.07 mPa·s	9.674 mPa·s	7.893 mPa·s	6.525 mPa·s	5.461 mPa·s	4.621 mPa·s	3.948 mPa·s

Oc1ccc(Cl)cc1 + CCO
Conditions	viscosity [mPa·s]
298.15 K, 101 kPa, x1 = 0.5	1.454

CC(C)CCO + CCCCO
298.15 K, 101 kPa
Conditions	viscosity [mPa·s]
x2 = 0.1033	3.62
x2 = 0.204	3.472
x2 = 0.2977	3.343
x2 = 0.4026	3.211
x2 = 0.5005	3.093
x2 = 0.6046	2.972
x2 = 0.6996	2.851
x2 = 0.8015	2.746
x2 = 0.9172	2.615

CCOCCO + C1CCOC1
viscosity [mPa·s], 101.33 kPa
Conditions	x1 = 0.1003	x1 = 0.2025	x1 = 0.3008	x1 = 0.403	x1 = 0.5069	x1 = 0.6012	x1 = 0.7048	x1 = 0.7983	x1 = 0.8839
298.15 K	0.593	0.677	0.787	0.908	1.057	1.232	1.503	1.701	1.898
303.15 K	0.502	0.571	0.66	0.756	0.874	1.011	1.223	1.381	1.546
308.15 K	0.475	0.539	0.618	0.702	0.808	0.93	1.091	1.242	1.385

Oc1ccc(Cl)cc1 + C[N+](C)(C)CCO.[Cl-]
Conditions	viscosity
293.15 K, 101 kPa, x2 = 0.333	170.6 mPa·s
298.15 K, 101 kPa, x2 = 0.333	123.2 mPa·s
298.15 K, 101.33 kPa, x1 = 0.7	180.2 mPa·s
298.15 K, 101.33 kPa, x1 = 0.8	108.2 mPa·s and 77.89 mPa·s and 66.12 mPa·s
298.15 K, 101.33 kPa, x1 = 0.9	61.06 mPa·s
303.15 K, 101 kPa, x2 = 0.333	92.75 mPa·s
308.15 K, 101 kPa, x2 = 0.333	71.68 mPa·s
313.15 K, 101 kPa, x2 = 0.333	55.45 mPa·s
318.15 K, 101 kPa, x2 = 0.333	43.94 mPa·s
323.15 K, 101 kPa, x2 = 0.333	35.45 mPa·s

CCOCCO + O=C1CCCCC1
298.15 K, 101 kPa
Conditions	viscosity [mPa·s]
x2 = 0.0926	1.684
x2 = 0.1867	1.587
x2 = 0.2824	1.529
x2 = 0.3797	1.494
x2 = 0.4787	1.469
x2 = 0.5793	1.472
x2 = 0.6818	1.506
x2 = 0.786	1.564
x2 = 0.892	1.691

Cc1cccc(Cl)c1 + CCOC(=O)c1ccccc1
viscosity [mPa·s], 101 kPa
Conditions	303.15 K	313.15 K
x2 = 0.0789	0.775	0.672
x2 = 0.1831	0.822	0.711
x2 = 0.2348	0.851	0.734
x2 = 0.3353	0.913	0.782
x2 = 0.4121	0.973	0.827
x2 = 0.4871	1.043	0.881
x2 = 0.5629	1.122	0.938
x2 = 0.6364	1.212	1.006
x2 = 0.711	1.312	1.084
x2 = 0.7831	1.419	1.166
x2 = 0.8563	1.54	1.257
x2 = 0.9045	1.625	1.321
x2 = 0.9524	1.714	1.388

c1ncncn1 + O
viscosity [mPa·s], 101 kPa
Conditions	x1 = 9.04e-05	x1 = 0.0001902	x1 = 0.0002698	x1 = 0.0003238	x1 = 0.0005432	x1 = 0.0005796	x1 = 0.0006388
293.15 K	0.9241	0.9097	0.8902	0.8869	0.8968	0.8957	0.8944
298.15 K	0.8187	0.8008	0.7878	0.7742	0.8122	0.8002	0.7864
303.15 K	0.7307	0.7212	0.7162	0.71	0.7263	0.7135	0.6979

Cn1cc[n+](CCCC#N)c1.O=S(=O)([O-])C(F)(F)F + CC#N
Conditions	viscosity [mPa·s]
298.15 K, 101 kPa, x1 = 0.7996	306.5

CC(C)CCO + CN1CCCC1=O
298.15 K, 101 kPa
Conditions	viscosity [mPa·s]
x2 = 0.0595	3.229
x2 = 0.1189	2.874
x2 = 0.1501	2.732
x2 = 0.2008	2.549
x2 = 0.2536	2.402
x2 = 0.2994	2.298
x2 = 0.3506	2.205
x2 = 0.4002	2.132
x2 = 0.4519	2.06
x2 = 0.5025	2.015
x2 = 0.5513	1.97
x2 = 0.6039	1.926
x2 = 0.6515	1.889
x2 = 0.7026	1.855
x2 = 0.7505	1.823
x2 = 0.8015	1.791
x2 = 0.8546	1.763
x2 = 0.9046	1.739
x2 = 0.9562	1.715
